As a reminder, the MIC is the smallest concentration in the dilution series that meets the test's criterion for growth inhibition.

Our source for the MIC values is patent US20250042912A1, “NOVEL NON-FLUORINATED QUINOLONE COMPOUND AND USE THEREOF” (priority 2021, published 2025).

SMILES strings stand for the structures. ≈ marks a conversion by molar mass, not a printed value. Counter-ions that a name gives are not always drawn.

Type in all cases: cell-based
Test [1] has as its system Staphylococcus epidermidis ATCC 12228. In words: Minimum inhibitory concentration (MIC) assay, Staphylococcus epidermidis ATCC 12228. Conditions: ATCC12228, aerobic culture 35+/-2°C, 16 to 20 hours, read with naked eyes. As for the experimental part:
(§1) On the day of the experiment, the compound in the flask was dissolved in 100% DMSO until the concentration of mother liquor was 0.4 mg/mL. If the mother liquor was not used on the same day, it was stored at −80° C. for future use.
(§2) The compound mother liquor and standard antibiotics were subjected to 2-fold gradient dilution with corresponding solvents on a 96-microwell plate (V-bottom) to obtain 100× working solutions (Well 1 to Well 7) in sequence. Among them, the concentrations of the compound were 400 μg/mL, 200 μg/mL, 100 μg/mL, 50 μg/mL, 25 μg/mL, 12.5 μg/mL, 6.25 μg/mL, and 3.125 μg/mL. 100% DMSO was used as growth control (Well 8). As such, the compound motherplate was obtained.
(§3) One day before the experiment, aerobic bacteria (Staphylococcus epidermidis) stored in a cryogenic tube at −80° C. were scribed on an MHA (Cation-adjusted Mueller-Hinton agar) plate. The aerobic bacteria were placed in a 35+/−2° C. incubator for 18-24 hours of aerobic cultivation.
(§4) On the day of the experiment, the plate was taken out, clones were picked from the plate and suspended in physiological saline. Then, the turbidity of the bacterial suspension (containing 1.0-2.0×10^8 CFU/mL) was adjusted to OD600=0.2 by a turbidity meter. Then, the adjusted bacterial suspension was diluted to an appropriate concentration with the assay culture medium: about 5×10^5 CFU/mL for aerobic bacteria, and about 1×10^6 CFU/mL for anaerobic bacteria. As such, the inoculating solution was obtained.
(§5) 2 μl of 2-fold series dilution of 100× high-concentration working solution was transferred from a compound mother plate (prepared in step 1) to a round-bottom 96-well plate, and then 198 μL of bacterial inoculating solution (prepared in step 2) was added to each well to obtain an MIC assay plate. Therefore, the final assay concentrations of the compound were 4 μg/mL, 2 μg/mL, 1 μg/mL, 0.5 μg/mL, 0.25 μg/mL, 0.125 μg/mL, 0.06 μg/mL and 0.03 μg/mL. The total volume of each well on the assay plate was 200 μL: containing 1% DMSO, about 5×10^5 CFU/mL of aerobic bacteria and about 1×10^6 CFU/mL of anaerobic bacteria.
(§6) All assay plates for aerobic bacteria were aerobically cultured at 35+/−2° C. for 16 to 20 hours, and all assay plates for anaerobic bacteria were anaerobically cultured in an anaerobic incubator at 35+/−2° C. for 48 hours.

Test [2] has as its system Propionibacterium acnes ATCC 6919. In words: Minimum inhibitory concentration (MIC) assay, Propionibacterium acnes ATCC 6919. Conditions: Cutibacterium acnes, ATCC6919; anaerobic culture 35+/-2°C, 48 hours; read with naked eyes. As for the experimental part: (§7) On the day of the experiment, the compound in the flask was dissolved in 100% DMSO until the concentration of mother liquor was 0.4 mg/mL. If the mother liquor was not used on the same day, it was stored at −80° C. for future use. The compound mother liquor and standard antibiotics were subjected to 2-fold gradient dilution with corresponding solvents on a 96-microwell plate (V-bottom) to obtain 100× working solutions (Well 1 to Well 7) in sequence. Among them, the concentrations of the compound were 400 μg/mL, 200 μg/mL, 100 μg/mL, 50 μg/mL, 25 μg/mL, 12.5 μg/mL, 6.25 μg/mL, and 3.125 μg/mL. 100% DMSO was used as growth control (Well 8). As such, the compound motherplate was obtained. Two days before the experiment, anaerobic bacteria (Propionibacterium acnes) stored in a cryogenic tube at −80° C. were scribed on an MBA (Brucella Agar+5% (v/v) defibrillated sheep blood+[…] Hemin+1 μg/mLVitamin K1) plate. The anaerobic bacteria were placed in a 35+/−2° C. anaerobic incubator for 42-48 hours of cultivation. On the day of the experiment, the plate was taken out, clones were picked from the plate and suspended in physiological saline. Then, the turbidity of the bacterial suspension (containing 1.0-2.0×10^8 CFU/mL) was adjusted to OD600=0.2 by a turbidity meter. Then, the adjusted bacterial suspension was diluted to an appropriate concentration with the assay culture medium: about 5×10^5 CFU/mL for aerobic bacteria, and about 1×10^6 CFU/mL for anaerobic bacteria. As such, the inoculating solution was obtained. […] Therefore, the final assay concentrations of the compound were 4 μg/mL, 2 μg/mL, 1 μg/mL, 0.5 μg/mL, 0.25 μg/mL, 0.125 μg/mL, 0.06 μg/mL and 0.03 μg/mL. The total volume of each well on the assay plate was 200 μL: containing 1% DMSO, about 5×10^5 CFU/mL of aerobic bacteria and about 1×10^6 CFU/mL of anaerobic bacteria. All assay plates for aerobic bacteria were aerobically cultured at 35+/−2° C. for 16 to 20 hours, and all assay plates for anaerobic bacteria were anaerobically cultured in an anaerobic incubator at 35+/−2° C. for 48 hours. Note: for anaerobic bacteria, both the preparation of bacterial solution in step 2 and the inoculation of bacterial solution in step 3 were operated in an anaerobic workstation.

The test system of test [3] is Staphylococcus epidermidis ATCC 35983. In words: Minimum inhibitory concentration (MIC) assay, Staphylococcus epidermidis ATCC 35983. Conditions: ATCC35983, aerobic culture 35+/-2°C, 16 to 20 hours, read with naked eyes. As for the experimental part:
as §1, §2, §3, §4, §5, §6

Test [4] deals with Propionibacterium acnes ATCC 11827. In words: Minimum inhibitory concentration (MIC) assay, Propionibacterium acnes ATCC 11827. To be noted: Cutibacterium acnes, ATCC11827; anaerobic culture 35+/-2°C, 48 hours; read with naked eyes. As for the experimental part: as §7
The subject of test [5] is Staphylococcus epidermidis ATCC 35984. In words: Minimum inhibitory concentration (MIC) assay, Staphylococcus epidermidis ATCC 35984. Conditions: ATCC35984, aerobic culture 35+/-2°C, 16 to 20 hours, read with naked eyes. As for the experimental part:
as §1, §2, §3, §4, §5, §6

On to `O=C(O)c1cn(C2CC2)c2c3c(ccc2c1=O)-c1cc2nc[nH]c2cc1COC3` [Compound 3], for which the MIC in test [1], in test [2], in test [3], in test [4] and in test [5] was 0.06 µg/mL (≈ 0.155 µM) throughout.
With `CNc1cc2c(cn1)-c1ccc3c(=O)c(C(=O)O)cn(C4CC4)c3c1C=CC2` [Compound 4], the MIC in test [1] turned out to be 0.125 µg/mL (≈ 0.335 µM); in test [2], 0.5 µg/mL (≈ 1.34 µM); in test [3] it was 0.125 µg/mL (≈ 0.335 µM); in test [4], 0.5 µg/mL (≈ 1.34 µM); in test [5], 0.06 µg/mL (≈ 0.161 µM).
With `COc1cc2c(cn1)-c1ccc3c(=O)c(C(=O)O)cn(C4CC4)c3c1COC2` [Compound 5], the MIC in test [1], in test [2], in test [3], in test [4] and in test [5] was 0.06 µg/mL (≈ 0.159 µM) each time.
Take `O=C(O)c1cn(C2CC2)c2c3c(ccc2c1=O)-c1c[nH]c(=O)cc1COC3` [Compound 21]: the minimum inhibitory concentration (MIC) was determined as 1 µg/mL (≈ 2.74 µM) in test [1]; 0.5 µg/mL (≈ 1.37 µM) in test [2]; 1 µg/mL (≈ 2.74 µM) in test [3]; 1 µg/mL (≈ 2.74 µM) in test [4]; 2 µg/mL (≈ 5.49 µM) in test [5].
With `CN(C[C@H]1COC(C)(C)O1)c1cc2c(cn1)-c1ccc3c(=O)c(C(=O)O)cn(C4CC4)c3c1COC2` [Compound 25], the MIC in test [1] worked out at 0.25 µg/mL (≈ 0.509 µM); in test [2], 0.25 µg/mL (≈ 0.509 µM); in test [3] it was 0.5 µg/mL (≈ 1.02 µM); in test [4], 0.25 µg/mL (≈ 0.509 µM); in test [5], 0.25 µg/mL (≈ 0.509 µM).
Regarding `CC1(C)OC[C@H](CNc2cc3c(cn2)-c2ccc4c(=O)c(C(=O)O)cn(C5CC5)c4c2COC3)O1` [Compound 26], the MIC in test [1] was 0.25 µg/mL (≈ 0.524 µM); in test [2] it was 0.5 µg/mL (≈ 1.05 µM); in test [3], 0.25 µg/mL (≈ 0.524 µM); in test [4], 0.5 µg/mL (≈ 1.05 µM); in test [5], 0.25 µg/mL (≈ 0.524 µM).
Regarding `CNc1ccc2c(n1)COCc1c-2ccc2c(=O)c(C(=O)O)cn(C3CC3)c12` [Hydrochloride of Compound 1], the MIC in test [1] was 0.5 µg/mL; in test [2] it was 0.25 µg/mL; in test [3], 0.25 µg/mL; in test [4], 0.25 µg/mL; in test [5] it was 0.5 µg/mL.
As for `N=C(N)NOCCOCCNc1cc2c(cn1)-c1ccc3c(=O)c(C(=O)O)cn(C4CC4)c3c1COC2` [Hydrochloride of Compound 29], the minimum inhibitory concentration (MIC) in test [1] is 2 µg/mL; in test [2], 2 µg/mL; in test [3], 2 µg/mL; in test [4], 1 µg/mL; in test [5] it was 1 µg/mL.
On to `Cc1cc2c(cn1)-c1ccc3c(=O)c(C(=O)O)cn(C4CC4)c3c1COC2` [Sodium salt of Compound 10], for which the MIC in test [1] was 0.06 µg/mL; in test [2], 0.125 µg/mL; in test [3] it was 0.06 µg/mL; in test [4] it was 0.125 µg/mL; in test [5], at most 0.03 µg/mL.
In the case of `CNc1cc2c(cn1)-c1ccc3c(=O)c(C(=O)O)cn(C4CC4)c3c1COC2` [Trifluoroacetate of Compound 2], the minimum inhibitory concentration (MIC) in test [1] is 0.06 µg/mL; in test [2], 0.125 µg/mL; in test [3], 0.06 µg/mL; in test [4], 0.25 µg/mL; in test [5], 0.06 µg/mL.
Turning to `Nc1cc2c(cn1)-c1ccc3c(=O)c(C(=O)O)cn(C4CC4)c3c1COC2` [Trifluoroacetate of Compound 7], the MIC in test [1] came out at 0.06 µg/mL; in test [2] it was 0.125 µg/mL; in test [3] it was 0.03 µg/mL; in test [4], 0.25 µg/mL; in test [5], 0.03 µg/mL.
Take `Nc1ncc2c(n1)COCc1c-2ccc2c(=O)c(C(=O)O)cn(C3CC3)c12` [Trifluoroacetate of Compound 9]: the MIC was found to be 0.03 µg/mL in test [1]; 0.25 µg/mL in test [2]; 0.06 µg/mL in test [3]; 0.25 µg/mL in test [4]; 0.125 µg/mL in test [5].
As to `O=C(O)c1cn(C2CC2)c2c3c(ccc2c1=O)-c1cnccc1COC3` [Trifluoroacetate of Compound 11], the MIC in test [1] worked out at 0.03 µg/mL; in test [2], 0.5 µg/mL; in test [3], 0.06 µg/mL; in test [4] it was 0.25 µg/mL; in test [5], 0.125 µg/mL.
Take `O=C(O)c1cn(C2CC2)c2c3c(ccc2c1=O)-c1cnc(NCCO)cc1COC3` [Trifluoroacetate of Compound 12]: the MIC in test [1] came to 0.06 µg/mL; in test [2], 0.06 µg/mL; in test [3], 0.06 µg/mL; in test [4], 0.125 µg/mL; in test [5] it was 0.06 µg/mL.
Consider `CCCNc1cc2c(cn1)-c1ccc3c(=O)c(C(=O)O)cn(C4CC4)c3c1COC2` [Trifluoroacetate of Compound 13], for which the MIC is 0.06 µg/mL in test [1]; 0.125 µg/mL in test [2]; 0.06 µg/mL in test [3]; 0.25 µg/mL in test [4]; 0.06 µg/mL in test [5].
In the case of `CCNc1cc2c(cn1)-c1ccc3c(=O)c(C(=O)O)cn(C4CC4)c3c1COC2` [Trifluoroacetate of Compound 14], the minimum inhibitory concentration (MIC) in test [1] is 0.06 µg/mL; in test [2] it was 0.06 µg/mL; in test [3] it was 0.06 µg/mL; in test [4], 0.125 µg/mL; in test [5], 0.03 µg/mL.
In the case of `O=C(O)c1cn(C2CC2)c2c3c(ccc2c1=O)-c1cnc(NCc2ccccc2)cc1COC3` [Trifluoroacetate of Compound 15], the MIC came to 0.06 µg/mL in test [1]; 0.125 µg/mL in test [2]; 0.06 µg/mL in test [3]; 0.5 µg/mL in test [4]; 0.06 µg/mL in test [5].
Consider `O=C(O)c1cn(C2CC2)c2c3c(ccc2c1=O)-c1cnc(NCC2CCC2)cc1COC3` [Trifluoroacetate of Compound 16], for which the minimal inhibitory concentration (MIC) in test [1] was found to be 0.06 µg/mL; in test [2], 0.5 µg/mL; in test [3], 0.06 µg/mL; in test [4], 0.5 µg/mL; in test [5], 0.06 µg/mL.
With `NCCNc1cc2c(cn1)-c1ccc3c(=O)c(C(=O)O)cn(C4CC4)c3c1COC2` [Trifluoroacetate of Compound 19], the MIC in test [1] came out at 2 µg/mL; in test [2], 2 µg/mL; in test [3], 1 µg/mL; in test [4], 2 µg/mL; in test [5] it was 1 µg/mL.
In the case of `CNc1cc2c(cn1)-c1ccc3c(=O)c(C(=O)O)cn(C4CC4)c3c1CCC2` [Trifluoroacetate of Compound 20], the minimal inhibitory concentration (MIC) in test [1] was found to be 0.125 µg/mL; in test [2] it was 1 µg/mL; in test [3] it was 0.125 µg/mL; in test [4] it was 2 µg/mL; in test [5] it was 0.125 µg/mL.
